target: T1, HCV NS3/4A protease complex (Hepatitis C virus genotype 1a, UniProt P27958, C1454S/C1711G); assay: FRET peptide assay to monitor HCV NS3/4A proteolytic activity; format: biochemical; settings: not given
T1 construct: recombinant HCV NS3/4A protease complex (amino acids 1027 to 1711); inferred from the pET21b vector and Ni-NTA purification; made in house; host or cells: Escherichia coli BL21 (DE3)
Text: HCV NS3 protease complexes, derived from the BMS strain, H77 strain or J4L6S strain, were generated, as described below. These purified recombinant proteins were generated for use in a homogeneous assay (see below) to provide an indication of how effective compounds of the present disclosure would be in inhibiting HCV NS3 proteolytic activity.
The H77 and J4L6S strains were used for production of recombinant NS3/4A protease complexes. DNA encoding the recombinant HCV NS3/4A protease complex (amino acids 1027 to 1711) for these strains was manipulated as described by P. Gallinari et al. (see Gallinari P, Paolini C, Brennan D, Nardi C, Steinkuhler C, De Francesco R. Biochemistry. 38(17):5620-32, (1999)). Briefly, a three-lysine solubilizing tail was added at the 3′-end of the NS4A coding region. The cysteine in the P1 position of the NS4A-NS4B cleavage site (amino acid 1711) was changed to a glycine to avoid the proteolytic cleavage of the lysine tag. Furthermore, a cysteine to serine mutation was introduced by PCR at amino acid position 1454 to prevent the autolytic cleavage in the NS3 helicase domain. The variant DNA fragment was cloned in the pET21b bacterial expression vector (Novagen) and the NS3/4A complex was expressed in Escherichia coli strain BL21 (DE3) (Invitrogen) following the protocol described by P. Gallinari et al. (see Gallinari P, Brennan D, Nardi C, Brunetti M, Tomei L, Steinkuhler C, De Francesco R., J Virol. 72(8):6758-69 (1998)) with modifications. Briefly, the NS3/4A protease complex expression was induced with 0.5 millimolar (mM) Isopropyl β-D-1-thiogalactopyranoside (IPTG) for 22 hours (h) at 20° C. A typical fermentation (1 Liter (L)) yielded approximately 10 grams (g) of wet cell paste. The cells were resuspended in lysis buffer (10 mL/g) consisting of 25 mM N-(2-Hydroxyethyl)Piperazine-N′-(2-Ethane Sulfonic acid) (HEPES), pH 7.5, 20% glycerol, 500 mM Sodium Chloride (NaCl), 0.5% Triton X-100, 1 microgram/milliliter (“μg/mL”) lysozyme, 5 mM Magnesium Chloride (MgCl2), 1 μg/ml DnaseI, 5 mM β-Mercaptoethanol (βME), Protease inhibitor-Ethylenediamine Tetraacetic acid (EDTA) free (Roche), homogenized and incubated for 20 minutes (min) at 4° C. The homogenate was sonicated and clarified by ultra-centrifugation at 235000 g for 1 hour (h) at 4° C. Imidazole was added to the supernatant to a final concentration of 15 mM and the pH adjusted to 8.0. The crude protein extract was loaded on a Nickel-Nitrilotriacetic acid (Ni-NTA) column pre-equilibrated with buffer B (25 mM HEPES, pH 8.0, 20% glycerol, 500 mM NaCl, 0.5% Triton X-100, 15 mM imidazole, 5 mM βME). The sample was loaded at a flow rate of 1 ml/min. The column was washed with 15 column volumes of buffer C (same as buffer B except with 0.2% Triton X-100). The protein was eluted with 5 column volumes of buffer D (same as buffer C except with 200 mM Imidazole).
NS3/4A protease complex-containing fractions were pooled and loaded on a desalting column Superdex-S200 pre-equilibrated with buffer D (25mM HEPES, pH 7.5, 20% glycerol, 300 mM NaCl, 0.2% Triton X-100, 10 mM βME). Sample was loaded at a flow rate of 1 mL/min. NS3/4A protease complex-containing fractions were pooled and concentrated to approximately 0.5 mg/ml. The purity of the NS3/4A protease complexes, derived from the BMS, H77 and J4L6S strains, were judged to be greater than 90% by SDS-PAGE and mass spectrometry analyses. The enzyme was stored at −80° C., thawed on ice and diluted prior to use in assay buffer.
The purpose of this in vitro assay was to measure the inhibition of HCV NS3 protease complexes, derived from the BMS strain, H77 strain or J4L6S strain, as described above, by compounds of the present disclosure. This assay provides an indication of how effective compounds of the present disclosure would be in inhibiting HCV NS3 proteolytic activity.
In order to monitor HCV NS3/4A protease activity, an NS3/4A peptide substrate was used. […]

T1 sequence (P27958 1027-1711 C1454S/C1711G, one chain of several): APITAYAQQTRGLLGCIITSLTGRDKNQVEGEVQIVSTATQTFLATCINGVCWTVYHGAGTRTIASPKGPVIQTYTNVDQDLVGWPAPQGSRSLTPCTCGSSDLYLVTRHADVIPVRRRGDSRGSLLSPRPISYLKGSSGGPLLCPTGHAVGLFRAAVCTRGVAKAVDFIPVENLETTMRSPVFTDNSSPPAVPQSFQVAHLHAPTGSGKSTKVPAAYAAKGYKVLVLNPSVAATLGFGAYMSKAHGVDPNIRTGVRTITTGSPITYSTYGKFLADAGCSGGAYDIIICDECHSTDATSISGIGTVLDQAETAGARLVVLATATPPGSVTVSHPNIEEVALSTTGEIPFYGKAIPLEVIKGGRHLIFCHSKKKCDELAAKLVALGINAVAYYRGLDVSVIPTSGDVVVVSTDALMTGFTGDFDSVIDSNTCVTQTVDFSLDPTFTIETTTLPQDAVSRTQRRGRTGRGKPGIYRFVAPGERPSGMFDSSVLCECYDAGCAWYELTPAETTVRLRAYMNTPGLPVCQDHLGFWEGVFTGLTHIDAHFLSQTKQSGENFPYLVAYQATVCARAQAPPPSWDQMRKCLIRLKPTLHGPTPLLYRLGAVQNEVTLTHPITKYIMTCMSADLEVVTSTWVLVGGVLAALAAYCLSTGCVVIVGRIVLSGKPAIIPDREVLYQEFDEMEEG

Row | Structure (SMILES) | IC50
1 | CO[C@@]12C[C@@H](C(=O)N[C@]3(C(=O)NS(=O)(=O)C4CC4)C[C@H]3C3CC3)N(C1)C(=O)[C@H](C(C)(C)C)NC(=O)OCCCCCCc1ccc3ccc2cc3c1 [Example 31] | 1 to 10 nM

same assay, conditions: HCV NS3/4A protease complex; strain not stated; class symbols; read-out: IC50

Row | Structure (SMILES) | IC50
2 | C=C[C@@H]1C[C@]1(NC(=O)[C@@H]1C[C@]2(OC)CN1C(=O)[C@H](C(C)(C)C)NC(=O)OCCCCCCc1cc3cc2ccc3cc1N(C)C)C(=O)NS(=O)(=O)C1CC1 [Example 29] | 1 to 10 nM
3 | COc1cc2ccc3cc2cc1CCCCCOC(=O)N[C@@H](C(C)(C)C)C(=O)N1C[C@@]3(OC)C[C@H]1C(=O)N[C@]1(C(=O)NS(=O)(=O)C2CC2)C[C@H]1C1CC1 [Example 6] | 1 to 10 nM
4 | COc1cc2ccc3cc2cc1CCCC(C)(C)CCOC(=O)N[C@@H](C(C)C)C(=O)N1C[C@@]3(OC)C[C@H]1C(=O)N[C@]1(C(=O)NS(=O)(=O)C2CC2)C[C@H]1C1CC1 [Example 38] | 1 to 10 nM
5 | COc1cc2ccc3cc2cc1CCCC(C)(C)CCOC(=O)N[C@@H](C(C)(C)C)C(=O)N1C[C@@]3(OC(=O)N(C)C)C[C@H]1C(=O)N[C@]1(C(=O)NS(=O)(=O)C2CC2)C[C@H]1C1CC1 [Example 27] | 1 to 10 nM
6 | C=C[C@@H]1C[C@]1(NC(=O)[C@@H]1C[C@]2(OC)CN1C(=O)[C@H](C(C)(C)C)NC(=O)OCCCCCCCc1cc3cc2ccc3cc1OC)C(=O)NS(=O)(=O)C1CC1 [Example 20] | 11 to 12 nM
7 | COc1ccc2ccc3cc2c1CCCCCOC(=O)N[C@@H](C(C)(C)C)C(=O)N1C[C@@]3(OC)C[C@H]1C(=O)N[C@]1(C(=O)NS(=O)(=O)C2CC2)C[C@H]1C1CC1 [Example 36] | 21 to 3200 nM
8 | COc1cc2ccc3cc2cc1CCCC(C)(C)CCOC(=O)N[C@@H](C1CCOCC1)C(=O)N1C[C@@]3(OC)C[C@H]1C(=O)N[C@]1(C(=O)NS(=O)(=O)C2CC2)C[C@H]1C1CC1 [Example 39] | 1 to 10 nM
9 | C=C[C@@H]1C[C@]1(NC(=O)[C@@H]1C[C@]2(OC)CN1C(=O)[C@H](C(C)(C)C)NC(=O)OCCCCCCc1cc2cc2ccccc12)C(=O)NS(=O)(=O)C1CC1 [Example 24] | 1 to 10 nM
10 | CO[C@@]12C[C@@H](C(=O)N[C@]3(C(=O)NS(=O)(=O)C4CC4)C[C@H]3C3CC3)N(C1)C(=O)[C@H](C(C)(C)C)NC(=O)OCCCCCCc1cc3cc2ccc3cc1N(C)C [Example 30] | 1 to 10 nM
11 | COc1cc2ccc3cc2cc1CCCCOC(=O)N[C@@H](C(C)(C)C)C(=O)N1C[C@@]3(OC)C[C@H]1C(=O)N[C@]1(C(=O)NS(=O)(=O)C2CC2)C[C@H]1C1CC1 [Example 2] | 11 to 12 nM
12 | COc1cc2ccc3cc2cc1CCCCCCCCOC(=O)N[C@@H](C(C)(C)C)C(=O)N1C[C@@]3(OC)C[C@H]1C(=O)N[C@]1(C(=O)NS(=O)(=O)C2CC2)C[C@H]1C1CC1 [Example 22] | 1 to 10 nM
13 | COc1cc2ccc3cc2cc1CCCCCCOC(=O)N[C@@H](C(C)(C)C)C(=O)N1C[C@@]3(O)C[C@H]1C(=O)N[C@]1(C(=O)NS(=O)(=O)C2CC2)C[C@H]1C1CC1 [Example 26] | 1 to 10 nM
14 | C=C[C@@H]1C[C@]1(NC(=O)[C@@H]1C[C@]2(OC)CN1C(=O)[C@H](C(C)(C)C)NC(=O)OCCCCCCCCc1cc3cc2ccc3cc1OC)C(=O)NS(=O)(=O)C1CC1 [Example 23] | 1 to 10 nM
15 | COc1cc2ccc3cc2cc1CCCCCCCOC(=O)N[C@@H](C(C)(C)C)C(=O)N1C[C@@]3(OC)C[C@H]1C(=O)N[C@]1(C(=O)NS(=O)(=O)C2CC2)C[C@H]1C1CC1 [Example 21] | 21 to 3200 nM
16 | C=C[C@@H]1C[C@]1(NC(=O)[C@@H]1C[C@]2(OC)CN1C(=O)[C@H](C(C)(C)C)NC(=O)OCCCCc1cc3cc2ccc3cc1OC)C(=O)NS(=O)(=O)C1CC1 [Example 3] | 1 to 10 nM
17 | COc1ccc2ccc3cc2c1CCCCOC(=O)N[C@@H](C(C)(C)C)C(=O)N1C[C@@]3(OC)C[C@H]1C(=O)N[C@]1(C(=O)NS(=O)(=O)C2CC2)C[C@H]1C1CC1 [Example 37] | 21 to 3200 nM
18 | COc1cc2ccc3cc2cc1CCCCCCCC(=O)N[C@@H](C(C)(C)C)C(=O)N1C[C@@]3(OC)C[C@H]1C(=O)N[C@]1(C(=O)NS(=O)(=O)C2CC2)C[C@H]1C1CC1 [Example 41] | 1 to 10 nM
19 | COc1cc2ccc3cc2cc1CCCC(C)(C)CCNC(=O)N[C@@H](C(C)(C)C)C(=O)N1C[C@@]3(OC)C[C@H]1C(=O)N[C@]1(C(=O)NS(=O)(=O)C2CC2)C[C@H]1C1CC1 [Example 40] | 1 to 10 nM
20 | COc1c2cc3cc(ccc3c1Br)[C@]1(OC)C[C@@H](C(=O)N[C@]3(C(=O)NS(=O)(=O)C4CC4)C[C@H]3C3CC3)N(C1)C(=O)[C@H](C(C)(C)C)NC(=O)OCCC(C)(C)CCC2 [Example 33] | 11 to 12 nM
21 | C=C[C@@H]1C[C@]1(NC(=O)[C@@H]1C[C@]2(OC)CN1C(=O)[C@H](C(C)(C)C)NC(=O)OCCCCCc1cc3cc2ccc3cc1OC)C(=O)NS(=O)(=O)C1CC1 [Example 5] | 1 to 10 nM
22 | COCO[C@@]12C[C@@H](C(=O)N[C@]3(C(=O)NS(=O)(=O)C4CC4)C[C@H]3C3CC3)N(C1)C(=O)[C@H](C(C)(C)C)NC(=O)OCCC(C)(C)CCCc1cc3cc2ccc3cc1OC [Example 28] | 1 to 10 nM

same assay, conditions: HCV NS3/4A protease complex; strain not stated; numeric values; read-out: IC50

Row | Structure (SMILES) | IC50
23 | COc1cc2ccc3cc2cc1CCCC1(CCOC(=O)N[C@@H](C(C)(C)C)C(=O)N2C[C@@]3(OC)C[C@H]2C(=O)N[C@]2(C(=O)NS(=O)(=O)C3CC3)C[C@H]2C2CC2)CC1 [Example 34] | 1 nM
24 | C=C[C@@H]1C[C@]1(NC(=O)[C@@H]1C[C@]2(OC)CN1C(=O)[C@H](C(C)(C)C)NC(=O)OCCCCCc1cc2cc2ccccc12)C(=O)NS(=O)(=O)C1CC1 [Example 25] | 240 nM
25 | COc1ccc2ccc3cc2c1CCCCCCOC(=O)N[C@@H](C(C)(C)C)C(=O)N1C[C@@]3(OC)C[C@H]1C(=O)N[C@]1(C(=O)NS(=O)(=O)C2CC2)C[C@H]1C1CC1 [Example 35] | 413 nM
26 | COc1c2cc3cc(ccc3c1Cl)[C@]1(OC)C[C@@H](C(=O)N[C@]3(C(=O)NS(=O)(=O)C4CC4)C[C@H]3C3CC3)N(C1)C(=O)[C@H](C(C)(C)C)NC(=O)OCCC(C)(C)CCC2 [Example 32] | 25 nM
